Data published in patent EP1497263B1, “ACYL-3-CARBOXYPHENYLUREA DERIVATIVES, METHOD FOR PRODUCTION AND USE THEREOF” (Sanofi-Aventis Deutschland GmbH, priority 2002, dated 2003).

System: Humane Glykogenphosphorylase a
Assay: Glycogen phosphorylase a activity test (reverse direction, release of inorganic phosphate)
Assay type: biochemical, human
Settings: 10 µM test substance; 40 min at room temperature; duplicate determinations
From the text: Glykogenphosphorylase a Aktivitätstest
Der Effekt von Verbindungen auf die Aktivität der aktiven Form der Glykogenphosphorylase (GPa) wurde in der umgekehrten Richtung, durch Verfolgen der Glykogensynthese aus Glukose-1-Phosphat an Hand der Bestimmung der Freisetzung von anorganischem Phosphat, gemessen. Alle Reaktionen wurden als Doppelbestimmungen in Mikrotiterplatten mit 96-Vertiefungen (Half Area Plates, Costar Nr. 3696) durchgeführt, wobei die Änderung der Absorption auf Grund der Bildung des Reaktionsprodukts bei der weiter unten spezifizierten Wellenlänge in einem Multiskan Ascent Elisa Reader (Lab Systems, Finnland) gemessen wurde. Um die GPa Enzymaktivität in der umgekehrten Richtung zu messen, wurde die Umwandlung von Glukose-1-Phosphat in Glykogen und anorganisches Phosphat nach der allgemeinen Methode von Engers et al. (Engers HD, Shechosky S, Madsen NB, Can J Biochem 1970 Jul;48(7):746-754) mit folgenden Modifikationen gemessen: Humane Glykogenphosphorylase a (zum Beispiel mit 0,76 mg Protein / ml (Aventis Pharma Deutschland GmbH), gelöst in Pufferlösung E (25 mM β-Glyzerophosphat, pH 7,0, 1 mM EDTA und 1 mM Dithiotreitol) wurde mit Puffer T (50 mM Hepes, pH 7,0, 100 mM KCI, 2,5 mM. EDTA, 2,5 mM MgCl2·6H2O) und Zusatz von 5 mg/ml Glykogen auf eine Konzentration von 10 µg Protein/ml verdünnt. […]

Row | % Inhibition bei 10 µM [%] | Compound
1 | 46 | Cc1ccccc1C(=O)NC(=O)Nc1cc(C(=O)O)ccc1Cl [compound 5]
2 | 3 | CCOC(=O)c1ccc(NC(=O)NC(=O)c2c(F)cccc2F)cc1 [Vergleichsbeispiel A]
